Target: T1, Axl (Homo sapiens, UniProt P30530)
T1 construct: endogenous in cells; host or cells: HeLa cells
T1 sequence (P30530 26-894): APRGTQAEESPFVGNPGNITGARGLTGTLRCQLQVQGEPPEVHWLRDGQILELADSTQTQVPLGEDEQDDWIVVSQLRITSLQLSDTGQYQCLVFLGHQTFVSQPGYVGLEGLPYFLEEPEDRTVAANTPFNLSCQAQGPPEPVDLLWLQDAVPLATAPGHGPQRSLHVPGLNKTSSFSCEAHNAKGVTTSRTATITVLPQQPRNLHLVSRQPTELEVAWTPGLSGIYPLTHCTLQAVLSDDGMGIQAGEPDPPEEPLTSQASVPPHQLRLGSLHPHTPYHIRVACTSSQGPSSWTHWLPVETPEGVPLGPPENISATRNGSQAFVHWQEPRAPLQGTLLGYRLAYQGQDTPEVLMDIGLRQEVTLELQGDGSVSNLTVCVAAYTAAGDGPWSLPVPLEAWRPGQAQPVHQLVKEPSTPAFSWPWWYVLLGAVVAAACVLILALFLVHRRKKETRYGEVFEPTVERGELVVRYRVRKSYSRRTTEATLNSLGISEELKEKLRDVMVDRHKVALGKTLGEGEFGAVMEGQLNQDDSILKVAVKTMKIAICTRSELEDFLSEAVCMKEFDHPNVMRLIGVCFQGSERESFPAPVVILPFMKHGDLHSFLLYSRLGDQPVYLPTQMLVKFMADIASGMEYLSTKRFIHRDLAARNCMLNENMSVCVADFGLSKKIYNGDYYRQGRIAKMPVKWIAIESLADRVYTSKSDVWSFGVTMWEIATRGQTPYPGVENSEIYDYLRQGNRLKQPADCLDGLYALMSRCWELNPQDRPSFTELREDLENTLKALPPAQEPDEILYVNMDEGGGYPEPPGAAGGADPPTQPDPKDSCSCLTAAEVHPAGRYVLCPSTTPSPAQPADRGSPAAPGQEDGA
Test: Phospho-Akt in-cell Western assay (inhibition of Axl activity)
Type: cell-based
In short: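 HeLa cells on poly-L-lysine, starved 24 h in 0.5% FCS DMEM with Axl/Fc 500 ng/mL, pre-treated with compound 1 h at 37° C. Axl stimulated 5 min by anti-Axl/anti-mouse antibody cross-linking. Fixed cells probed with anti-phospho-Akt and HRP secondary, chemiluminescence read.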

[1] = Table 3, Hela cells, Axl antibody cross-linking stimulation, phospho-Akt chemiluminescence
[2] = inhibition of Axl activity, Table 1
[3] = inhibition of Axl activity, phospho-Akt in-cell Western assay, Table 1
[4] = Table 7, Hela cells, Axl antibody cross-linking stimulation, phospho-Akt chemiluminescence
[5] = Table 4, Hela cells, Axl antibody cross-linking stimulation, phospho-Akt chemiluminescence

CN1CCN(c2ccc(Nc3nc(N)n(C(=O)C4CC5CCC4C5)n3)cc2)CC1 (stereo not shown) [compound 365, 5-amino-1-(bicyclo[2.2.1]heptan-2-yl)carbonyl-3-[4-(4-methylpiperazin-1-yl)phenylamino]-1H-1,2,4-triazole]
IC50 [1]: > 20 µM

Cc1cccc(C(=O)n2nc(Nc3cccc(O)c3)nc2N)c1 [(Ia-7), 5-amino-3-[3-(hydroxy)phenylamino]-1-(3-(methyl)phenyl)carbonyl-1H-1,2,4-triazole]
IC50 [2]: 1 to 10 µM

CN(C)c1ccc(C(=O)n2nc(Nc3ccc(OCCn4ccnc4)cc3)nc2N)cc1 [compound 373, 5-amino-1-(4-(dimethylamino)phenyl)carbonyl-3-[4-[2-(imidazol-1-yl)ethoxy]phenylamino]-1H-1,2,4-triazole]
IC50 [3]: < 1 µM

CC(C)Oc1ccc(C(=O)n2nc(Nc3ccc(OCCN4CCCC4)cc3)nc2N)cc1 [(Ia-2), 5-amino-1-(4-(iso-propoxy)phenyl)carbonyl-3-[4-[2-(pyrrolidin-1-yl)ethoxy]phenylamino]-1H-1,2,4-triazole]
IC50 [3]: < 1 µM

COC(=O)COc1cccc(Nc2nc(N)n(C(=O)c3cccc(C)c3)n2)c1 [compound 147, 5-amino-3-[3-(methoxycarbonylmethoxy)phenylamino]-1-(3-(methyl)phenyl)carbonyl-1H-1,2,4-triazole]
IC50 [2]: 1 to 10 µM

COc1cc(Nc2nc(N)n(C(=O)c3ccc(N4CCOCC4)cc3)n2)ccc1OCCN1CCCC1 [compound 343, 5-amino-1-(4-(morpholin-4-yl)phenyl)carbonyl-3-[3-methoxy-4-[2-(pyrrolidin-1-yl)ethoxy]phenylamino]-1H-1,2,4-triazole]
IC50 [3]: < 1 µM

CC(C)Oc1ccc(C(=O)n2nc(Nc3ccc(OC4CCCC4)cc3)nc2N)cc1 [compound 151, 5-amino-3-[4-(cyclopentoxy)phenylamino]-1-(4-(iso-propoxy)phenyl)carbonyl-1H-1,2,4-triazole]
IC50 [2]: > 20 µM

Cc1ccc(C(=O)n2nc(Nc3ccc4c(c3)OCCO4)nc2N)cc1 [compound 104, 5-amino-3-(1,4-benzodioxan-6-yl)amino-1-(4-(methyl)phenyl)carbonyl-1H-1,2,4-triazole]
IC50 [2]: 1 to 10 µM

Nc1nc(Nc2ccc3c(c2)OCCO3)n(C(=O)c2cccc(OCCC3OCCO3)c2)n1 [compound 209]
IC50 (Table 2, Hela cells, Axl antibody cross-linking stimulation, phospho-Akt chemiluminescence): > 20 µM

Nc1nc(Nc2ccc(OCCN3CCCCC3)cc2)nn1C(=O)NC1CCCCC1 [compound 42, 5-amino-N-cyclohexyl-3-[4-[2-(piperidin-1-yl)ethoxy]phenylamino]-1H-1,2,4-triazole-1-carboxamide]
IC50 [4]: 1 to 10 µM

CCCCOc1ccc(NC(=O)n2nc(Nc3ccc(N(C)C(C)=O)cc3)nc2N)cc1 [compound 180, 3-[4-(acetyl(methyl)amino)phenyl]amino-5-amino-N-(4-(butoxy)phenyl)-1H-1,2,4-triazole-1-carboxamide]
IC50 [4]: 1 to 10 µM

COC(=O)n1nc(N)nc1Nc1ccc2c(c1)OCCO2 [compound 93, 3-amino-5-(1,4-benzodioxan-6-yl)amino-1-methoxycarbonyl-1H-1,2,4-triazole]
IC50 (Table 8, Hela cells, Axl antibody cross-linking stimulation, phospho-Akt chemiluminescence): > 20 µM

Nc1nc(Nc2ccc(OCCN3CCCC3)cc2)nn1C(=O)C1CC2CCC1C2 (stereo not shown) [compound 200, 5-amino-1-[2-(bicyclo[2.2.1]heptane)carbonyl]-3-[4-[2-(pyrrolidin-1-yl)ethoxy]phenylamino]-1H-1,2,4-triazole]
IC50 [1]: > 20 µM

Nc1nc(Nc2ccc(OCCN3CCCCCC3)cc2)nn1C(=O)c1ccc(-c2csnn2)cc1 [compound 324, 5-amino-1-(4-(1,2,3-thiadiazol-4-yl)phenyl)carbonyl-3-[4-[2-(azepan-1-yl)ethoxy]phenylamino]-1H-1,2,4-triazole]
IC50 [3]: < 1 µM

CC(C)Oc1cccc(C(=O)n2nc(Nc3cccc(-c4cnco4)c3)nc2N)c1 [compound 170, 5-amino-1-(3-(iso-propoxy)phenyl)carbonyl-3-[3-(1,3-oxazol-5-yl)phenylamino]-1H-1,2,4-triazole]
IC50 [2]: 1 to 10 µM

Nc1nc(Nc2ccc3c(c2)OCCO3)nn1C(=O)c1ccc(OCCC2OCCO2)cc1 [compound 214]
IC50 [2]: 1 to 10 µM

Cc1cccc(C(=O)n2nc(Nc3cccc(OCC(=O)NC4CCCCC4)c3)nc2N)c1 [compound 165, 5-amino-3-[3-[cyclohexylaminocarbonylmethoxy]phenylamino]-1-(3-(methyl)phenyl)carbonyl-1H-1,2,4-triazole]
IC50 [2]: > 20 µM

Cc1ccc(NC(=O)n2nc(Nc3ccc(OCCN4CCCC4)cc3)nc2N)cc1 [compound 37, 5-amino-N-(4-methylphenyl)-3-[4-[2-(pyrrolidin-1-yl)ethoxy]phenylamino]-1H-1,2,4-triazole-1-carboxamide]
IC50 [4]: 1 to 10 µM

Nc1nc(Nc2ccc(N3CCOCC3)cc2)nn1C(=O)c1cccc(O)c1 [compound 67, 5-amino-1-(3-(hydroxy)phenyl)carbonyl-3-(4-(morpholin-4-yl)phenylamino)-1H-1,2,4-triazole]
IC50 [2]: 1 to 10 µM

Nc1nc(Nc2ccc(OCCn3ccnc3)cc2)n(C(=O)c2ccc3cc[nH]c3c2)n1 [compound 376, 3-amino-1-(1H-indol-6-yl)carbonyl-5-[4-[2-(imidazol-1-yl)ethoxy]phenylamino]-1H-1,2,4-triazole]
IC50 [5]: < 1 µM

CC1(C)Oc2ccc(C(=O)n3nc(N)nc3Nc3ccc(N4CCOCC4)cc3)cc2NC1=O [compound 69, 3-amino-1-(2,2-dimethyl-2H-benzo[b][1,4]oxazin-3(4H)-on-6-yl)carbonyl-5-(4-(morpholin-4-yl)phenylamino)-1H-1,2,4-triazole]
IC50 [5]: 1 to 10 µM

Nc1nc(Nc2ccc3c(c2)OCCO3)nn1C(=O)c1ccc([N+](=O)[O-])cc1 [compound 240, 5-amino-3-(1,4-benzodioxan-6-yl)amino-1-(4-nitrophenyl)carbonyl-1H-1,2,4-triazole]
IC50 [2]: > 20 µM

COc1ccccc1C(=O)n1nc(Nc2ccc3c(c2)OCCO3)nc1N [compound 106, 5-amino-3-(1,4-benzodioxan-6-yl)amino-1-(2-(methyloxy)phenyl)carbonyl-1H-1,2,4-triazole]
IC50 [2]: > 20 µM

CN(C)c1cccc(C(=O)n2nc(Nc3ccc(OCCCN4CCCC4)cc3)nc2N)c1 [compound #20, 5-Amino-1-(3-(dimethylamino)phenyl)carbonyl-3-[4-[3-(pyrrolidin-1-yl)propoxy]phenylamino]-1H-1,2,4-triazole]
IC50 [3]: < 1 µM

CC(C)Oc1ccc(Nc2nc(N)n(C(=O)c3ccc4c(c3)NC(=O)C(C)(C)O4)n2)cc1 [compound 65, 5-amino-1-(2,2-dimethyl-2H-benzo[b][1,4]oxazin-3(4H)-on-6-yl)carbonyl-3-(4-(iso-propoxy)phenyl)amino-1H-1,2,4-triazole]
IC50 [1]: 1 to 10 µM

CN(C)c1ccc(C(=O)n2nc(Nc3ccc(OCCN4CCCCC4)cc3)nc2N)cc1 [compound #2, 5-Amino-1-(4-(dimethylamino)phenyl)carbonyl-3-[4-[2-(piperidin-1-yl)ethoxy]phenylamino]-1H-1,2,4-triazole]
IC50 [3]: < 1 µM

Nc1nc(Nc2ccc3c(c2)OCCO3)nn1C(=O)c1cccc(OCCN2CCOCC2)c1 [compound 150, 5-amino-3-(1,4-benzodioxan-6-yl)amino-1-[3-[2-(morpholin-4-yl)ethoxy]phenyl]carbonyl-1H-1,2,4-triazole]
IC50 [2]: > 20 µM

Nc1nc(Nc2ccc(OCCN3CCCC3)cc2)nn1C(=O)c1ccc2sccc2c1 [compound 369, 5-amino-1-(benzo[b]thiophen-5-yl)carbonyl-3-[4-[2-(pyrrolidin-1-yl)ethoxy]phenylamino]-1H-1,2,4-triazole]
IC50 [1]: < 1 µM

Source: patent publication US8389557B2, “Triazole derivatives useful as Axl inhibitors” (Rigel Pharmaceuticals, Inc., priority 2005, dated 2013)
